US6867305B2, “Synthesis of epothilones, intermediates thereto and analogues thereof” (Sloan-Kettering Institute for Cancer Research, priority 1996, dated 2005)
Where a name gives a salt, the structure may show the parent alone.

Legend:
CCRF-CEM/VM2 = test: Cell growth inhibition, resistant subline; assay type: cell-based, human
Description: (§1) The fresh medium containing each drug was replenished every 7-14 days. […] In each case ,the drug-exposed cells were resuspended in fresh media for a minimum of 4 days before the experiments for the cell-growth inhibition was carried out.
(§2) The cells were cultured at an initial density of 2-5×10^4 cells per ml. They were maintained in a 5% CO2-humidified atmosphere at 37° C. in RPMI mediun 1640 (GIBCO/BRL) containing penicillin (100 units/ml), streptomycin (100 μg/ml) (GIBCO/BRL), and 5% heat-inactivated fetal bovine serum. For solid tumor cells growing in a monolayer (such as MCF-7/Adr), cytotoxicitiy of the drug was determined in 96-well microtiter plates by using the sulforhodamine B method as described by Skehan et al (23) for measuring the cellular protein content. For cells that were grown in suspension (such as CCRF-CEM and its sublines), cytotoxicitiy was measured by using the 2,-3-bis(2-methoxy-4-nitro-5-sulfophenyl)-5carboxanilide)-2H terazodium hydroxide (XTT)-microculture tetrazonium method (24) in duplicate in 96-well microtiter plates. For both methods, the absorbance of each well was measured with a microplate reader (EL-340, Bio-Tek, Burlington, Vt.). Each run entailed six or seven concentrations of the tested drugs. Dose-effect relationship data were analyzed with the median-effect plot (25) by using a previously described computer program (26).

[1] = test system: PC-3 prostate adenocarcinoma xenograft; test: Human tumor xenograft in nude mice; assay type: in vivo; settings: PC-3, i.v. infusion
Description: (§3) Depending on the tumor type, treatment started on day 10 to day 21 when subcutaneous tumor size reached 35-200 mm^3, except otherwise indicated. Tumor size and body-weight were recorded every other day (Q2D) and, for humane reasons, the animals were sacrificed when tumor size reached ≧10% of body-weight. Each group, including untreated control, consisted of 3-5 animals unless otherwise indicated.
(§4) Athymic nude mice bearing the nu/nu gene were used for all human tumor xenografts. Outbred, Swiss-background mice were obtained from Charles River Laboratories. Male mice 8 weeks or older weighing 22 g and up were used for most experiments. The drug was administered via the tail vein for 6 hr.-i.v. infusion. Each individual mouse was confined in a perforated Falcon polypropylene tube restrainer for drug administration. Tumor volume was assessed by measuring length×width×height (or width) using a caliper. The programmable Harvard PHD2000 syringe pump (Harvard Apparatus) with multi-track was used for i.v. infusion. […] All animal studies were conducted in accordance with the guidelines of the National Institutes of Health “Guide for the Care and Use of Animals” and the protocol approved by the Memorial Sloan-Kettering Cancer Center's Institutional Animal Care and Use Committee. In keeping with the policy of this committee for the humane treatment of tumor-bearing animals, mice were euthanized when tumors reached ≧10% of their total body weight.
(§5) Human tumor cells (5×10^6) or tumor tissue (30-50 mg) were implanted s.c. flank in nu/nu mice (Charles River Laboratories, Wilmington, Mass.). When tumor grew to a specified size, treatment was started by every-other day×5 with 6 hr i.v.-infusion, unless otherwise indicated. Tumor volume was measured with calipers in three dimensions (length×width×height or width). Body-weight changes and lethality were monitored every other day.

[2] = test system: A549 lung carcinoma xenograft; test: Human tumor xenograft in nude mice; assay type: in vivo; settings: A549, i.v. infusion
Description: as §3, §4, §5

[3] = test system: CCRF-CEM/VM1 (teniposide-resistant subline); test: Tumor cell growth inhibition in vitro (XTT, 72 h); assay type: cell-based, human; settings: Homo sapiens, CCRF-CEM, 72 h
Description: as §1, §2

[4] = test system: CCRF-CEM human T-cell acute lymphoblastic leukemia cells; test: Tumor cell growth inhibition in vitro (XTT, 72 h); assay type: cell-based; settings: for IC50: CCRF-CEM, 72 h incubation
Description: as §1, §2

[5] = test system: MCF-7/Adr mammary xenograft; test: Human tumor xenograft in nude mice; assay type: in vivo; settings: i.v. infusion
[6] = test system: K562 chronic myelocytic leukemia xenograft; test: Human tumor xenograft in nude mice; assay type: in vivo
Description: FIG. 34 depicts tumor size in nude mice bearing human leukemia […] tumor following 6 mg/kg C-15-Aza-EpoB, Q2D×6 and 30 mg/kg dEpoF, Q2ED×6 (i.v. infusion […].). K562 tumor cells (1×10^7 in 0.2 mL) were inoculated to nude mice on day 0. Mice were treated with 6 mg/kg aza-EpoB, 6 h-i.v. infusion on days 20, 22, 24, 26, 28 and 30 (Δ, n=3). The same group of mice were then treated with 30 mg/kg dEpoF, 6 h-i.v. infusion on days 42, 44, 46, 48, 52, and 54 (Δ, n=3). […] The control mice (∘, n=3) received vehicle only.
K562 tumor cells (1×10^7, in 0.2 ml/mouse) were implanted s.c. on day 0. […] The control mice (∘, n=4) received vehicle, Cremophor-ethanol (1:1), only. The vertical bars indicate mean tumor size in mm^3±S.E.
as §3, §4, §5

CCRF-CEM/VBL1000 = test: Cell growth inhibition, resistant subline; assay type: cell-based; settings: Homo sapiens
Description: as §1, §2

CCRF-CEM/VBL = test: Relative potency in vitro, very highly resistant MDR cells; assay type: cell-based, human; settings: Homo sapiens, CCRF-CEM, read-out: CCRF-CEM/VBL IC50 in μM
Description: as §2

MCF-7/Adr = test: Tumor cell growth inhibition in vitro; assay type: cell-based, human; settings: Homo sapiens, NCI/ADR-RES, MCF-7/Adr
Description: as §2, with “They were maintained in a 5% CO2-humidified atmosphere at 37° C. in RPMI mediun 1640 (GIBCO/BRL) containing penicillin (100 units/ml), streptomycin (100 μg/ml) (GIBCO/BRL), and 5% heat-inactivated fetal bovine serum.” left out

[7] = test system: MCF-7 human mammary adenocarcinoma; test: Tumor cell growth inhibition in vitro; assay type: cell-based; settings: Homo sapiens, MCF7, MCF-7; read-out: IC50
Description: as §2, with “They were maintained in a 5% CO2-humidified atmosphere at 37° C. in RPMI mediun 1640 (GIBCO/BRL) containing penicillin (100 units/ml), streptomycin (100 μg/ml) (GIBCO/BRL), and 5% heat-inactivated fetal bovine serum.” left out

UL-3-B/Taxol = test: cells; settings: Homo sapiens, UL-3-B/Taxol
[8] = test system: UL-3-C ovarian adenocarcinoma; test: Tumor cell growth inhibition in vitro; assay type: cell-based, human; settings: Homo sapiens
Description: as §1, §2

[9] = test system: MX-1 mammary carcinoma xenograft; settings: MX-1, i.p., ref 19 (Table 4)
[10] = test system: K562 human chronic myeloblastic leukemia; test: Tumor cell growth inhibition in vitro; assay type: cell-based; settings: Homo sapiens, K562, K562
Description: as §2, with “They were maintained in a 5% CO2-humidified atmosphere at 37° C. in RPMI mediun 1640 (GIBCO/BRL) containing penicillin (100 units/ml), streptomycin (100 μg/ml) (GIBCO/BRL), and 5% heat-inactivated fetal bovine serum.” left out

[11] = test system: CCRF-CEM/VBL100 (vinblastine-resistant subline); test: Tumor cell growth inhibition in vitro (XTT, 72 h); assay type: cell-based, human
Description: as §1, §2

[12] = test system: CCRF-CEM/Taxol (paclitaxel-resistant subline); test: Tumor cell growth inhibition in vitro (XTT, 72 h); assay type: cell-based, human
Description: as §1, §2

tubulin = test: Tubulin-binding / tubulin polymerization assay; assay type: biochemical

COc1cc([C@@H]2c3cc4c(cc3[C@@H](O[C@@H]3O[C@@H]5CO[C@@H](C)O[C@H]5[C@H](O)[C@H]3O)[C@H]3COC(=O)[C@H]23)OCO4)cc(OC)c1O [Etoposide, etoposide, reference compound]
fold resistance vs original CCRF-CEM (CCRF-CEM/VM2; CCRF-CEM/VM2): 69 fold | IC50 (CCRF-CEM/VM2; Homo sapiens, CCRF-CEM/VM2, exposed to teniposide 12 months): 19.8 µM | Therapeutic Effect Rank Order [1]: Taxol, VBL>dEpoB>>VP-16 | Therapeutic Effect Rank Order [2]: Taxol, dEpoB, VBL>VP-16 | IC50 [3]: 3.44 µM | IC50 [4]: 0.029 µM | Therapeutic Effect Rank Order [5]: dEpoB>>VP-16, Taxol>VBL, Adriamycin

CC[C@]1(O)C[C@@H]2CN(CCc3c([nH]c4ccccc34)[C@@](C(=O)OC)(c3cc4c(cc3OC)N(C)[C@H]3[C@@](O)(C(=O)OC)[C@H](OC(C)=O)[C@]5(CC)C=CCN6CC[C@]43[C@@H]65)C2)C1 [Vinblastine, vinblastine sulfate, reference compound]
Therapeutic Effect Rank Order ([6]; K562, i.v. infusion, FIG. 3 & 4): dEpoB>>>VBL> Taxol> Adriamycin | therapeutic effect ([6]; K562, dEpoB 30 mg/kg, Taxol 20 mg/kg 6 hr i.v. infusion, Adriamycin 3 mg/kg, vinblastine 2.5 mg/kg i.v., every other day from day 20 (FIG. 36)): only partial curative or remissive effects | IC50 (CCRF-CEM/VBL1000): 0.974 µM | IC50 (CCRF-CEM/VBL): 2.02 µM | Therapeutic Effect Rank Order [1]: Taxol, VBL>dEpoB>>VP-16 | Therapeutic Effect Rank Order [2]: Taxol, dEpoB, VBL>VP-16 | IC50 (MCF-7/Adr): 0.025 µM | IC50 [7]: 0.0094 µM | IC50 (UL-3-B/Taxol): 0.0031 µM | IC50 [8]: 0.00037 µM | Therapeutic Effect Rank Order [5]: dEpoB>>VP-16, Taxol>VBL, Adriamycin | Therapeutic Effect Rank Order [9]: dEpoB>Camptothecin>Taxol>VBL, EpoB

C/C1=C/CC(/C(C)=C/c2csc(C)n2)NC(=O)CC(O)C(C)(C)C(=O)[C@H](C)[C@@H](O)[C@@H](C)CCC1 (stereo partly drawn) [aza-dEpoB, 12,13,15-desoxy-15(S)-aza-epothilone B]
IC50 [10]: 0.0024 µM | cross-resistance (fold of resistance vs parent cell line) ([11]; CCRF-CEM/VBL100 vs CCRF-CEM): 35.8 x | IC50 ([11]; Homo sapiens, CCRF-CEM, 72 h): 0.997 µM | cross-resistance (fold of resistance vs parent cell line) ([12]; CCRF-CEM/Taxol vs CCRF-CEM): 38.4 x | IC50 ([12]; Homo sapiens, CCRF-CEM, 72 h): 0.791 µM | IC50 ([4]; Homo sapiens, 72 h): 0.0278 µM | potency relative to aza-EpoB (fold less potent) ([4]; in vitro cell lines): about 10 fold

C/C1=C/CC(/C(C)=C/c2csc(COC(=O)c3c(F)c(F)c(N=[N+]=[N-])c(F)c3F)n2)OC(=O)CC(O)C(C)(C)C(=O)C(C)C(O)[C@@H](C)CCC1 (stereo partly drawn) [compound 66]
induction of tubulin polymerization (tubulin): did not induce tubulin polymerization
